Some test systems named below: HCT-116 colon; OVCAR-3 ovarian; NCI-H23 lung; ACHN renal; NCI-H460 lung; SF-539 CNS; NCI-H522 lung; EKVX NSCLC; LOX IMVI melanoma; RPMI-8226 leukemia.
What all share (assay): inhibition of tumour cell growth, NCI panel, 48 h

“And” between values parts separate entries of the source, which are not always exact repeats. Equal values may be shown once.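 1) Cells in 96-well plates. 2) Compound, 48 h, 5 concentrations. 3) Linear interpolation between surrounding doses. 4) Unreached endpoint = highest concentration. GI50 = concentration required for 50% inhibition of growth. At the TGI there is no net growth.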

As for `COc1ccc(C#CCC(OC2OC(CO)C(O)C(O)C2O)C(O)c2ccc(OC)c(OC)c2)cc1OC` (centres undefined), the TGI in the assay with HCT-116 colon, with OVCAR-3 ovarian, in the assay on NCI-H23 lung, in the assay on ACHN renal, with NCI-H460 lung and in the assay on SF-539 CNS was over 100 µM each time. For the same compound, the TGI in the assay on NCI-H522 lung was over 100 µM; in the assay with EKVX NSCLC, over 100 µM; in the assay with LOX IMVI melanoma, 59.1 µM; in the assay on RPMI-8226 leukemia it was over 100 µM.

For the compound `CC(C)Oc1ccc(C(=O)N[C@H](CNC(=O)CN(C)C)Cc2ccc(-c3cn4cccc([C@H](C)O)c4n3)cc2)cc1Cl`, the GI50 in the assay on HCT-116 colon was 0.0355 µM; in the assay on OVCAR-3 ovarian, 0.0393 µM; in the assay with NCI-H23 lung, 0.0566 µM; in the assay on ACHN renal, 6.6 µM; with NCI-H460 lung, 0.036 µM; in the assay with SF-539 CNS, 0.0323 µM. Moreover, the GI50 is 0.0229 µM in the assay with NCI-H522 lung, 0.0547 µM with EKVX NSCLC, 0.0736 µM with LOX IMVI melanoma and 0.0399 µM with RPMI-8226 leukemia. The TGI amounted to 14.2 µM in the assay on HCT-116 colon; 15.7 µM in the assay with OVCAR-3 ovarian; 21.5 µM in the assay with NCI-H23 lung; 21.8 µM in the assay on ACHN renal; 12.6 µM with NCI-H460 lung; 1.19 µM in the assay with SF-539 CNS. The TGI in the assay on NCI-H522 lung amounted to 0.0698 µM; in the assay with EKVX NSCLC, 21.6 µM; in the assay with LOX IMVI melanoma, 14.5 µM; with RPMI-8226 leukemia it was 19.8 µM.

For the compound `Cn1c(=S)sc2nc3ccccc3n2c1=S`, the TGI in the assay on HCT-116 colon came to 17.9 µM; in the assay with OVCAR-3 ovarian, 25.4 µM; in the assay with NCI-H23 lung, 30.7 µM; in the assay with ACHN renal, 24 µM; in the assay with NCI-H460 lung it was 27.9 µM; with SF-539 CNS it was 27.1 µM. For the same compound, the TGI with NCI-H522 lung was determined as 15.1 µM; with EKVX NSCLC it was 44.6 µM; in the assay with LOX IMVI melanoma, 26.2 µM; in the assay with RPMI-8226 leukemia, 88.1 µM.

`CC(C)CC(=O)NS(=O)(=O)c1ccccc1`: the TGI with HCT-116 colon, in the assay with OVCAR-3 ovarian, with NCI-H23 lung, with ACHN renal, in the assay on NCI-H460 lung and in the assay on SF-539 CNS was over 100 µM throughout. Besides, the TGI with NCI-H522 lung, in the assay with EKVX NSCLC, in the assay with LOX IMVI melanoma and with RPMI-8226 leukemia was over 100 µM each time.

Regarding `NC[C@@](O)(c1ccc(Cl)cc1)c1ccc(-c2cn[nH]c2)cc1`, the GI50 with HCT-116 colon is 1.44 µM; with OVCAR-3 ovarian it was 3.22 µM and 1.96 µM; in the assay with ACHN renal, 1.64 µM; in the assay with NCI-H460 lung, 3.08 µM and 2.83 µM; in the assay on SF-539 CNS, 1.01 µM; in the assay on NCI-H522 lung, 1.45 µM. Moreover, the GI50 in the assay with EKVX NSCLC was 0.556 µM; in the assay with LOX IMVI melanoma it was 1.59 µM; in the assay on RPMI-8226 leukemia it was 2.23 µM. Further, the TGI in the assay on HCT-116 colon was 3.19 µM; with OVCAR-3 ovarian, > 25.6 µM and 4.44 µM; in the assay on NCI-H23 lung, over 100 µM; with ACHN renal it was 4.93 µM; with NCI-H460 lung, over 100 µM; with SF-539 CNS, 2.36 µM. Also, the TGI was 3.53 µM with NCI-H522 lung, over 10 µM in the assay on EKVX NSCLC, 3.04 µM in the assay on LOX IMVI melanoma and 4.95 µM in the assay with RPMI-8226 leukemia.

Take `O=c1/c(=C/c2ccc3c(c2)OCO3)sc2nnc(-c3ccco3)n12`: the TGI with HCT-116 colon, in the assay with OVCAR-3 ovarian, with NCI-H23 lung, with ACHN renal, in the assay on NCI-H460 lung and in the assay with SF-539 CNS was over 100 µM throughout. In addition, the TGI in the assay with NCI-H522 lung, in the assay with EKVX NSCLC, in the assay on LOX IMVI melanoma and in the assay with RPMI-8226 leukemia was over 100 µM in each case.

For `COc1cc(OC)cc(-c2cncn2-c2ccc(-c3nc4cc(OC)c(OC)c(OC)c4s3)cc2)c1`, the GI50 was 3.76 µM in the assay with HCT-116 colon; 6.07 µM in the assay on OVCAR-3 ovarian; 9.56 µM in the assay with NCI-H23 lung; 11.5 µM with ACHN renal; 7.46 µM with NCI-H460 lung; 22 µM in the assay on SF-539 CNS. Further, the GI50 in the assay on NCI-H522 lung is 11.8 µM; with EKVX NSCLC, 1.87 µM; with LOX IMVI melanoma it was 6.93 µM; with RPMI-8226 leukemia, 2.9 µM. Further, the TGI with HCT-116 colon was over 100 µM; with OVCAR-3 ovarian, 26.7 µM; in the assay with NCI-H23 lung it was over 100 µM; with ACHN renal, over 100 µM; with NCI-H460 lung, over 100 µM; in the assay on SF-539 CNS it was over 100 µM. For the same compound, the TGI with NCI-H522 lung, in the assay on EKVX NSCLC, in the assay with LOX IMVI melanoma and in the assay on RPMI-8226 leukemia was over 100 µM throughout.

With `CCC(/C(=N\Nc1c(Cl)cc(Cl)cc1Cl)c1ccccc1)n1ccnc1C` (centres undefined), the TGI in the assay on HCT-116 colon turned out to be 20.8 µM; with OVCAR-3 ovarian, 18.8 µM; in the assay with NCI-H23 lung, 25.3 µM; in the assay on ACHN renal it was 19.5 µM; with NCI-H460 lung, 29.4 µM; in the assay on SF-539 CNS, 31.1 µM. Further, the TGI in the assay with NCI-H522 lung amounted to 18.1 µM; in the assay on EKVX NSCLC, 35.9 µM; with LOX IMVI melanoma, 26.8 µM; in the assay with RPMI-8226 leukemia, 41 µM.

As to `O=C(Nc1ccc(Br)cc1F)c1cc(Br)ccc1O`, the GI50 is 0.732 µM in the assay on HCT-116 colon; 0.535 µM in the assay with OVCAR-3 ovarian; 0.396 µM in the assay on NCI-H23 lung; 0.848 µM with ACHN renal; 0.5 µM with NCI-H460 lung; 0.552 µM with SF-539 CNS. The GI50 in the assay with NCI-H522 lung was 0.344 µM; with EKVX NSCLC, 1.03 µM; in the assay with LOX IMVI melanoma, 0.668 µM; in the assay with RPMI-8226 leukemia, 0.322 µM. Also, the TGI in the assay with HCT-116 colon turned out to be 4.28 µM; with OVCAR-3 ovarian it was 8.62 µM; in the assay on NCI-H23 lung it was 3.62 µM; in the assay with ACHN renal, 9.18 µM; in the assay on NCI-H460 lung it was 7.2 µM; in the assay on SF-539 CNS it was 4.64 µM. Also, the TGI in the assay with NCI-H522 lung worked out at 5.38 µM; in the assay on EKVX NSCLC it was 11.7 µM; in the assay with LOX IMVI melanoma it was 4.47 µM; with RPMI-8226 leukemia, 2.02 µM.

These data come from PubChem BioAssay (NCI).
